What was measured:
[1] = Plasma pharmacokinetics of AZD5582 in infant RMs (HPLC-MS/MS, NCA); assay type: in vivo, rhesus macaque
Experimental: As a potential explanation for the dampened virologic response to AZD5582 observed in infant RMs, we investigated AZD5582 pharmacokinetics (PK) following the third dose using a sparse sampling design. Blood samples were collected immediately following infusion in 4 RMs and from 2 RMs per time point at 1 h, 2 h, 4 h, 8 h, and 24 h postinfusion. […] Noncompartmental analysis (NCA) was conducted to determine pharmacokinetic parameters in infants and compared with available PK data from adult historical controls of SIV-infected, ART-suppressed rhesus macaques (n = 7) given matched doses of AZD5582 (Fig. 4B) ([17]). […] Although corresponding data were not collected from adult macaques, we note that in infants the AUC0-24h was calculated as 239 ng × hr/mL.
Plasma samples were collected from RMs over 24 h following the start of a single 30 min intravenous infusion of AZD5582 using a previously published ([17]). A high-performance liquid chromatography-mass spectrometry (HPLC-MS/MS) method with a dynamic range of 0.2 to 1000 ng/mL. Noncompartmental analysis (NCA) was performed using Phoenix64 WinNonlin v8.1 software using the sparse sampling function to derive mean PK parameters. The linear up-log down trapezoidal rule was used to calculate AUC. The terminal elimination rate constant (kel) was estimated by fitting a linear regression line on a semilog plot to the individual concentration data constrained to observations from 4 to 24 h post start of infusion and used to calculate terminal elimination half-life. One observation below the assay’s limit of quantification was imputed at ½ the lower limit of quantification ([35]).

[2] = system: NF-κB associated genes in CD4+ T cells; experiment: RNA-Seq of peripheral CD4+ T cells pre- and post-AZD5582; assay type: in vivo, rhesus macaque
Experimental: Treatment with AZD5582 in SIV-infected, ART-suppressed adult RMs upregulates key genes associated with signaling through the ncNF-kB pathway, rather than the canonical NF-κB (cNF-kB) pathway in CD4^+ T cells ([17]). Here, we performed RNA-Seq in total CD4^+ T cells isolated from the peripheral blood of AZD5582-treated infant macaques at baseline (pre-dose 1) and the end of the treatment period (post-dose 10).
RNA-sequencing (RNA-seq) analysis was conducted at the Yerkes Nonhuman Primate Genomics Core Laboratory (http://www.yerkes.emory.edu/nhp_genomics_core/). RNA was purified from 50,000 peripheral blood-derived CD4^+ T cells purified by negative selection and lysed in 350 μL of RLT buffer at −80°C, using Qiagen Micro RNEasy columns, and RNA quality was assessed using an Agilent Bioanalyzer. Following this, 2 ng of total RNA was used as input for mRNA amplification using 5′ template switch PCR with the Clontech SMART-seq v4 Ultra Low Input RNA kit according to the manufacturer’s instructions. Amplified mRNA was fragmented and appended with dual-index bar codes using Illumina NexteraXT DNA library preparation kits. Libraries were validated by capillary electrophoresis on an Agilent 4200 TapeStation, pooled and sequenced on an Illumina HiSeq 3000 using 100-bp single reads at an average depth of 25 million reads. Alignment was performed using STAR version 2.7.3a ([36]) and transcripts were annotated using a composite reference of rhesus macaque (Mmul10 Ensembl release 100).
Statistical analyses were performed using GraphPad Prism Software (v.7 or v.8). P ≤ 0.05 was considered statistically significant. To compare differences in pre-ART viral loads between experimental groups in Fig. 2D and SIV DNA levels in Fig. 3C a two-sided Mann-Whitney test was used. To test the statistical significance observed in Ki67 expression on memory CD4^+ and CD8^+ T cells in Fig. 3B, BIRC3, NFKB2 gene expression in Fig. 6A and B, and SIV RNA expression in Fig. 6C and D. A Wilcoxon matched-pairs signed-rank test was used. For RNA-seq analysis in Fig. 5, RNA-seq data were mapped to the NCBI Mmul10 assembly of the Indian rhesus macaque genome, and alignment was performed with STAR (v.2.7.3a) using Ensemble release 100 annotations as a transcript annotation and splice junction reference. Transcript abundance estimates were calculated internal to the STAR aligner using the algorithm of htseq-count ([37]). DESeq2 ([38]) was used for normalization and differential expression analysis. Gene set enrichment analysis ([39]) (GSEA), performed with the GSEA desktop module (available at https://www.broadinstitute.org/gsea/) and the Molecular Signatures Database (MSigDB), was used to determine pathway/gene set enrichment. Heat maps, volcano plots, and principal-component analysis plots were generated with the R (v 3.6.0) package ggplot2.

SIVmac239 = system: SIVmac239; parameters: method as in PMID 31969707; settings: adult RMs; cited from earlier work
memory CD8+ T cells = experiment: Ki67 expression by whole blood flow cytometry, memory CD8+ T cells; assay type: in vivo, rhesus macaque; settings: for Ki67 expression in memory CD8+ T cells: AZD5582 treated infant RMs
Experimental: The ncNF-κB pathway plays an important role in regulating T cell differentiation without causing broad systemic inflammation ([22]). We have previously observed a stimulatory effect on peripheral T cells following AZD5582 treatment specifically measurable through increased intracellular Ki67 expression ([17]). To further assess the effect of AZD5582 on infant RMs, flow cytometry was performed longitudinally on whole blood on the day of doses 1, 3, 6, and 9 and both 48 to 72h and 7 days after each of these doses. These time points were selected to allow longitudinal evaluation while remaining within blood volume constraints.
Multicolor flow cytometric analysis was performed on whole blood (WB) or cell suspensions using predetermined optimal concentrations of the following fluorescently conjugated monoclonal antibodies (MAbs). For WB T cell analysis the following MAbs were used: CD3-allophycocyanin (APC)-Cy7 (clone SP34-2), CD95-phycoerythrin (PE)-Cy5 (clone DX2), Ki67-AF700 (clone B56), HLA-DR-peridinin chlorophyll protein (PerCP)-Cy5.5 (clone G46-6), CCR7-fluorescein isothiocyanate (FITC) (clone 150503), CCR5-APC (clone 3A9), CD62L (clone SK11), and CD45-RA-PE-Cy7 (clone L45) from BD Biosciences; CD8-BV711 (clone RPA-T8), CD4-BV650 (clone OKT4), and PD-1-BV421 (clone EH12.2H7) from BioLegend; and CD28-ECD (clone CD28-2) from Beckman-Coulter. Flow cytometric acquisition and analysis of samples were performed on at least 100,000 events on an AURORA flow cytometer driven by the SpectroFlo software package (Cytek). Analyses of the acquired data were performed using FlowJo version 10.0.4 software (TreeStar).

[3] = rhesus monkey, in vivo, iv, 0.1 mg/kg
[4] = infant RMs, CD4+ T cells, post-dose 10 vs pre-dose 1

SMILES: CN[C@@H](C)C(=O)N[C@H](C(=O)N1CCC[C@H]1C(=O)N[C@H]1c2ccccc2C[C@H]1OCC#CC#CCO[C@@H]1Cc2ccccc2[C@@H]1NC(=O)[C@@H]1CCCN1C(=O)[C@@H](NC(=O)[C@H](C)NC)C1CCCCC1)C1CCCCC1 [AZD5582]
- Fold lower AUC0-2h in infants compared with adults ([1]; infant vs adult RMs): 2.3 fold
- AUC0-2h [1, 3]: 223 ng·h/mL
- AUC0-24h [1, 3]: 239 ng·h/mL
- Cmax [1, 3]: 294 ng/mL
- t1/2 (terminal elimination halflife) [1, 3]: 9.9 h
- BIRC3 and BIRC5 expression in CD4+ T cells ([2]; AZD5582 treated infant and adult RMs): most significantly upregulated
- Genes downregulated following AZD5582 treatment [2, 4]: 176 genes
- Genes upregulated following AZD5582 treatment [2, 4]: 855 genes
- Genes differentially expressed following AZD5582 treatment ([2]; infant RMs, CD4+ T cells, post-dose 10 vs pre-dose 1, FDR 5%, linear fold change 50%): 1,031 genes
- Expression of RELB, NFKB2 and NFKBIA in CD4+ T cells ([2]; treated infant RMs): did not observe increased expression
- SIV reactivation, events >60 copies/ml (SIVmac239): 64/140
- SIV reactivation, events >60 copies/ml (percent) (SIVmac239): 46%
- SIV reactivation, per animal (RMs with on-ART viremia) (SIVmac239): 5/9
- SIV reactivation, per animal (percent) (SIVmac239): 56%
- Mean Ki67 expression in peripheral memory CD8+ T cells (memory CD8+ T cells; 3-days post-AZD5582 (doses 1, 3, 6, 9), P = 0.03): 26.5%
- Ki67 expression in memory CD8+ T cells (memory CD8+ T cells; 7 days following dose 1): 46.7%
- Ki67 expression in memory CD8+ T cells (memory CD8+ T cells; before the increase seen after dose 1): 5.1%
- Mean Ki67 expression in peripheral memory CD8+ T cells (memory CD8+ T cells; baseline (immediately before doses 1, 3, 6, 9)): 18.2%
- Average increase of Ki67 expression in memory CD8+ T cells after dose 1 (memory CD8+ T cells; relative to three baseline measurements, treated infant RMs): 23.3%
